Here are results for 29 molecules from US10336739B2, “4-hydroxy-3-(heteroaryl)pyridine-2-one APJ agonists” (BRISTOL-MYERS SQUIBB COMPANY, priority 2015, dated 2019).

For orientation: EC50 means the concentration needed to bring the measured effect to its halfway point.

Chain of human APJ receptor (P35414 whole entry): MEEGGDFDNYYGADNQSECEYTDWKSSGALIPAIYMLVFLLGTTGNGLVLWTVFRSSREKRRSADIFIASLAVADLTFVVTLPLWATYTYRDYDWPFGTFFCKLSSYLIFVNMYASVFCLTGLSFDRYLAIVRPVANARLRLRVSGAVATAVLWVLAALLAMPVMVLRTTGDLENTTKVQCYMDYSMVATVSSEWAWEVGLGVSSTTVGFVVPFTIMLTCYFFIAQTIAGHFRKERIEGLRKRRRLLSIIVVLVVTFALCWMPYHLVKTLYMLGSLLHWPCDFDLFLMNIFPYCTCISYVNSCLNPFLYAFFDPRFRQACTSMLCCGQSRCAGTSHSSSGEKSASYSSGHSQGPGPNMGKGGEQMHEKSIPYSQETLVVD

One experiment concerns the target human APJ receptor (Homo sapiens (Human), UniProt P35414). Briefly: Intracellular cAMP accumulation assay (APJ hcAMP, HTRF). Type of experiment: cell-based. The note with it: HEK293 cells stably expressing human APJ receptor; inhibition of forskolin-mediated cAMP production; read-out: Human APJ cAMP EC50 Potency range. On the procedure: Intracellular cAMP Accumulation Assay
HEK293 cells stably expressing human APJ receptor were used to assess the activity of compounds. Cultured cells were detached and resuspended in the cAMP Homogeneous Time-Resolved Fluorescence (HTRF) assay buffer (Cisbio cat; #62AM4PEJ). The assay was performed in 384-well assay plates (Perkin-Elmer; cat #6008289) according to assay protocol provided by the manufacturer. Serial dilutions of a compound together with assay buffer containing […] and 2 μM forskolin were added to each well containing 5,000 cells and incubated for 30 minutes at room temperature. Subsequently, cAMP D2 reagent was added in the lysis buffer followed by the EuK antibody (Cisbio; cat #62AM4PEJ) and incubated for 60 min. The fluorescence emission ratio was measured using fluorometer. The intracellular cAMP concentrations (compound-stimulated inhibition of forskolin-mediated cAMP production) were calculated by extrapolation from a standard curve using known cAMP concentrations. The EC50 values were obtained by fitting the data to a sigmoidal concentration-response curve with variable slope.
Consider `CCCCc1nc(O)c(-c2nnc(CC(=O)N(CC)CC)o2)c(O)c1-c1c(OC)cccc1OC` [Example 177, 2-{5-[6-butyl-5-(2,6-dimethoxyphenyl)-2,4-dihydroxypyridin-3-yl]-1,3,4-oxadiazol-2-yl}-N,N-diethylacetamide], for which the EC50 lay within 0.01 to 10 nM. Same read-out and setting: in the case of `CCOCc1nc(O)c(-c2nnc(Cc3noc4ccccc34)s2)c(O)c1-c1c(OC)cccc1OC` [Example 231, 3-{5-[(1,2-benzoxazol-3-yl)methyl]-1,3,4-thiadiazol-2-yl}-5-(2,6-dimethoxyphenyl)-6-(ethoxymethyl)pyridine-2,4-diol] it was 10 to 100 nM.

Still in this experiment, the particulars now being: HEK293 cells stably expressing human APJ receptor; inhibition of forskolin-mediated cAMP production; read-out: hAPJ cAMP EC50 (nM) Potency range.
Regarding `CCCCc1nc(O)c(-c2nnc(CC(=O)Nc3cc(C)n[nH]3)o2)c(O)c1-c1c(OC)cccc1OC` [Example 263, 2-{5-[6-butyl-5-(2,6-dimethoxyphenyl)-2,4-dihydroxy-pyridin-3-yl]-1,3,4-oxadiazol-2-yl}-N-(3-methyl-1H-pyrazol-5-yl)acetamide], the concentration giving a half-maximal response (EC50) fell in the range of 0.01 to 10 nM. In the case of `COc1cccc(OC)c1-c1c(C2CCCC2)[nH]c(=O)c(-c2nnc(Cc3ccc(Cl)cc3)o2)c1O` [Example 239, 3-{5-[(4-chlorophenyl)methyl]-1,3,4-oxadiazol-2-yl}-6-cyclopentyl-5-(2,6-dimethoxyphenyl) pyridine-2,4-diol], the EC50 was 0.01 to 10 nM. Turning to `COCCOCc1nc(O)c(-c2nnc(Cc3ccc(Cl)cn3)o2)c(O)c1-c1c(OC)cccc1OC` [Example 240, 3-{5-[(5-chloropyridin-2-yl)methyl]-1,3,4-oxadiazol-2-yl}-5-(2,6-dimethoxyphenyl)-6-[(2-methoxyethoxy)methyl] pyridine-2,4-diol], the EC50 was 0.01 to 10 nM. Same read-out and setting: in the case of `CCCCc1nc(O)c(-c2nnc(CNC(=O)c3ccccc3)o2)c(O)c1-c1cccc(OC)c1OC` [Example 250, N-({5-[6-butyl-5-{2,3-dimethoxyphenyl)-2,4-dihydroxy-pyridin-3-yl]-1,3,4-oxadiazol-2-yl}methyl) benzamide] it was 0.01 to 10 nM.

The experiment is the same for the next values; noted with them: HEK293 cells stably expressing human APJ receptor; inhibition of forskolin-mediated cAMP production; read-out: hAPJ cAMP EC50 Potency range.
`CCOCc1nc(O)c(-c2nnc(CNC(=O)c3ccccc3)o2)c(O)c1-c1c(OC)cccc1OC` [Example 173, N-({5-[5-(2,6-dimethoxyphenyl)-6-(ethoxymethyl)-2,4-dihydroxypyridin-3-yl]-1,3,4-oxadiazol-2-yl}methyl) benzamide]: the half-maximal effective concentration (EC50) is 0.01 to 10 nM. On to `CCCCc1nc(O)c(-c2nnc(Cc3ccc(F)c(Cl)c3)o2)c(O)c1-c1c(OC)cccc1OC` [Example 70, 6-butyl-3-{5-[(3-chloro-4-fluorophenyl)methyl]-1,3,4-oxadiazol-2-yl}-5-(2,6-dimethoxyphenyl) pyridine-2,4-diol], for which the half-maximal effective concentration (EC50) fell in the range of 0.01 to 10 nM. `CCCCc1[nH]c(=O)c(-c2nnc(Cc3csc(C)n3)o2)c(O)c1-c1cccc(OC)c1` [Example 151, 6-butyl-4-hydroxy-5-(3-methoxyphenyl)-3-{5-[(2-methyl-1,3-thiazol-4-yl)methyl]-1,3,4-oxadiazol-2-yl}-1,2-dihydropyridin-2-one]: the EC50 lay within 0.01 to 10 nM. The same measure, in the same setting: as for `CCCCc1nc(O)c(-c2nnc(C3NCCc4ccccc43)o2)c(O)c1-c1c(OC)cccc1OC` (centres unmarked) [Example 61, 6-butyl-5-(2,6-dimethoxyphenyl)-3-[5-(1,2,3,4-tetra-hydroisoquinolin-1-yl)-1,3,4-oxadiazol-2-yl]pyridine-2,4-diol], the figure is 0.01 to 10 nM; as for `CCOCc1nc(O)c(-c2nnc(Cc3noc4ccccc34)o2)c(O)c1-c1c(OC)cc(F)cc1OC` [Example 213, 3-[5-(1,2-benzoxazol-3-ylmethyl)-1,3,4-oxadiazol-2-yl]-6-(ethoxymethyl)-5-(4-fluoro-2,6-dimethoxyphenyl) pyridine-2,4-diol], 0.01 to 10 nM. As to `CCCCc1nc(O)c(-c2nnc(Cc3noc4ccccc34)o2)c(O)c1-c1ccccc1` [Example 138, 3-[5-(1,2-benzoxazol-3-ylmethyl)-1,3,4-oxadiazol-2-yl]-6-butyl-5-phenylpyridine-2,4-diol], the EC50 was in the range of 10 to 100 nM. For `CCCCc1nc(O)c(-c2nnc(Cc3ccc(F)c(F)c3)o2)c(O)c1-c1cccc(CO)c1` [Example 143, 6-butyl-3-{5-[(3,4-difluorophenyl)methyl]-1,3,4-oxadiazol-2-yl}-5-[3-(hydroxymethyl)phenyl]pyridine-2,4-diol], the EC50 was in the range of 0.01 to 10 nM. Consider `CCCCc1nc(O)c(-c2nnc(Cc3nonc3C)o2)c(O)c1-c1c(OC)cccc1OC` [Example 41, 6-butyl-5-(2,6-dimethoxyphenyl)-3-{5-[(4-methyl-1,2,5-oxadiazol-3-yl)methyl]-1,3,4-oxadiazol-2-yl}pyridine-2,4-diol], for which the EC50 was 0.01 to 10 nM.

With `CCCCc1nc(O)c(-c2nnc(CN)o2)c(O)c1-c1c(OC)cccc1OC` [Example 170, 3-[5-(aminomethyl)-1,3,4-oxadiazol-2-yl]-6-butyl-5-(2,6-dimethoxyphenyl) pyridine-2,4-diol], the concentration giving a half-maximal response (EC50) lay in the range of 10 to 100 nM.

Regarding `CCCCc1nc(O)c(-c2nnc(CC(=O)NCCOC)o2)c(O)c1-c1c(OC)cccc1OC` [Example 193, 2-{5-[6-butyl-5-(2,6-dimethoxyphenyl)-2,4-dihydroxypyridin-3-yl]-1,3,4-oxadiazol-2-yl}-N-(2-methoxyethyl) acetamide], the 50% effective concentration (EC50) fell in the range of 10 to 100 nM. Still for that read-out and setting: in the case of `COc1cccc(OC)c1-c1c(C2CC2)nc(O)c(-c2nnc(Cc3nc(-c4ccccn4)no3)o2)c1O` [Example 95, 6-cyclopropyl-5-(2,6-dimethoxyphenyl)-3-(5-{[3-(pyridin-2-yl)-1,2,4-oxadiazol-5-yl]methyl}-1,3,4-oxadiazol-2-yl)pyridine-2,4-diol] it was 0.01 to 10 nM; in that of `CCOCc1nc(O)c(-c2nnc(Cc3ccc(C)c(F)c3)o2)c(O)c1-c1c(OC)cccc1OC` [Example 126, 5-(2,6-dimethoxyphenyl)-6-(ethoxymethyl)-3-{5-[(3-fluoro-4-methylphenyl)methyl]-1,3,4-oxadiazol-2-yl}pyridine-2,4-diol], 0.01 to 10 nM; in that of `CCCCc1nc(O)c(-c2nnc(Cc3ccncc3)o2)c(O)c1-c1c(OC)cccc1OC` [Example 3, 6-butyl-5-(2,6-dimethoxyphenyl)-3-[5-(pyridin-4-ylmethyl)-1,3,4-oxadiazol-2-yl]pyridine-2,4-diol], 10 to 100 nM. Same read-out and setting: as for `CCCCc1nc(O)c(-c2nnc(CC(=O)OC(C)(C)C)o2)c(O)c1-c1c(OC)cccc1OC` [Example 118, tert-butyl 2-{5-[6-butyl-5-(2,6-dimethoxyphenyl)-2,4-dihydroxypyridin-3-yl]-1,3,4-oxadiazol-2-yl}acetate], the figure is 0.01 to 10 nM; as for `CCOCc1nc(O)c(-c2nnc(Cc3ccc(Cl)nc3)o2)c(O)c1-c1c(OC)cc(F)cc1OC` [Example 216, 3-{5-[(6-chloropyridin-3-yl)methyl]-1,3,4-oxadiazol-2-yl}-6-(ethoxymethyl)-5-(4-fluoro-2,6-dimethoxyphenyl) pyridine-2,4-diol], 0.01 to 10 nM; as for `CCCCc1nc(O)c(-c2nnc(COc3ccc(Cl)cc3)o2)c(O)c1-c1c(OC)cccc1OC` [Example 53, 6-butyl-3-[5-(4-chlorophenoxy-methyl)-1,3,4-oxadiazol-2-yl]-5-(2,6-dimethoxyphenyl) pyridine-2,4-diol], 10 to 100 nM. On to `CCCCc1nc(O)c(-c2nnc(Cc3ccc(C#N)cc3)o2)c(O)c1-c1c(OC)cccc1OC` [Example 37, 4-({5-[6-butyl-5-(2,6-dimethoxyphenyl)-2,4-dihydroxypyridin-3-yl]-1,3,4-oxadiazol-2-yl}methyl) benzonitrile], for which the concentration giving a half-maximal response (EC50) fell in the range of 0.01 to 10 nM. The same measure, in the same setting: as for `CCCCCNC(=O)Cc1nnc(-c2c(O)nc(CCCC)c(-c3c(OC)cccc3OC)c2O)o1` [Example 198, 2-{5-[6-butyl-5-(2,6-dimethoxyphenyl)-2,4-dihydroxypyridin-3-yl]-1,3,4-oxadiazol-2-yl}-N-pentylacetamide], the figure is 10 to 100 nM. Same read-out and setting: as for `CCCCc1nc(O)c(-c2nnc(C3(c4ccccc4)CC3)o2)c(O)c1-c1c(OC)cccc1OC` [Example 13, 6-butyl-5-(2,6-dimethoxyphenyl)-3-[5-(1-phenylcyclopropyl)-1,3,4-oxadiazol-2-yl]pyridine-2,4-diol], the figure is 10 to 100 nM; as for `CCCCc1nc(O)c(-c2nnc(-c3cnccn3)o2)c(O)c1-c1c(OC)cccc1OC` [Example 12, 6-butyl-5-(2,6-dimethoxyphenyl)-3-[5-(pyrazin-2-yl)-1,3,4-oxadiazol-2-yl]pyridine-2,4-diol], 100 to 300 nM; as for `CCCCc1nc(O)c(-c2nnc(CNC(=O)c3ccccc3)o2)c(O)c1-c1c(OC)cccc1OC` [Example 171, N-({5-[6-butyl-5-(2,6-dimethoxyphenyl)-2,4-dihydroxypyridin-3-yl]-1,3,4-oxadiazol-2-yl}methyl) benzamide], 0.01 to 10 nM. Turning to `CCCCc1nc(O)c(-c2nnc(Cc3c(C)n[nH]c3C)o2)c(O)c1-c1c(OC)cccc1OC` [Example 36, 6-butyl-5-(2,6-dimethoxyphenyl)-3-{5-[(3,5-dimethyl-1H-pyrazol-4-yl)methyl]-1,3,4-oxadiazol-2-yl}pyridine-2,4-diol], the 50% effective concentration (EC50) was 10 to 100 nM. Take `CCCCc1nc(O)c(-c2nnc(Cc3nnc(Cc4ccccc4)o3)o2)c(O)c1-c1c(OC)cccc1OC` [Example 209, 3-{5-[(5-benzyl-1,3,4-oxadiazol-2-yl)methyl]-1,3,4-oxadiazol-2-yl}-6-butyl-5-(2,6-dimethoxyphenyl) pyridine-2,4-diol]: the EC50 fell in the range of 0.01 to 10 nM.
